# Data reported in patent US20050054555A1, “Kahalalide compounds for use in cancer therapy” (priority 2001, published 2005).
# Assay: Phase I trial KHF-A-001-00: plasma pharmacokinetics (LC-MS/MS)
# Assay type: in vivo, human
# Protocol: Bioanalysis of KF was performed by LC-MS/MS.
smiles,measurement,setting,value
"C/C=C1\NC(=O)[C@H](Cc2ccccc2)NC(=O)[C@@H](C(C)C)NC(=O)[C@@H](C(C)CC)NC(=O)[C@H](NC(=O)C(NC(=O)[C@H](CCCN)NC(=O)[C@H]2CCCN2C(=O)[C@H](NC(=O)[C@@H](NC(=O)[C@@H](NC(=O)[C@H](NC(=O)CCCC(C)C)C(C)C)C(C)O)C(C)C)C(C)C)C(C)CC)C(C)OC(=O)[C@H](C(C)C)NC1=O (single isomer, unassigned) [kahalalide F]",Maximum plasma concentrations,dose level 320 μg/m2/day,35 to 50 ng/mL
same,clearance,"male, human, plasma, iv infusion over 1 h, 5 consecutive days every 3 weeks, first course, 20-320 μg/m2/day, read-out: Total plasma clearance",267 mL/min
same,half-life,"male, human, plasma, iv infusion over 1 h, 5 consecutive days every 3 weeks, first course, read-out: terminal half-life (converted)",27.6 min
same,relationship between dose and AUC,whole dose range 20-320 μg/m2/day,linear relationship
